Values quoted from earlier work in patent US11945788B2, “Process for preparing pitolisant hydrochloride and solid-state forms thereof” (Nuray Chemicals Private Limited, priority 2021, dated 2024).

In the case of `Cl.Clc1ccc(CCCOCCCN2CCCCC2)cc1` [Pitolisant hydrochloride, 1-{3-[3-(4-chlorophenyl)propoxy]propyl}piperidine hydrochloride], the solubility in cyclohexane (solvent: cyclohexane) is listed as “practically insoluble”, the solubility in ethanol (solvent: ethanol) is listed as “soluble” and the “solubility in methylene chloride” value (solvent: methylene chloride) is listed as “soluble”. The solubility in water (solvent: water) was “soluble”.
